Our source for the fold induction values is patent publication US20060276464A1, “Diarylsulfone sulfonamides and use thereof” (Wyeth, priority 2005, published 2006).

The target of the assay is T1, SFRP-1 (Homo sapiens, UniProt Q8N474).
T1 sequence (Q8N474 32-314): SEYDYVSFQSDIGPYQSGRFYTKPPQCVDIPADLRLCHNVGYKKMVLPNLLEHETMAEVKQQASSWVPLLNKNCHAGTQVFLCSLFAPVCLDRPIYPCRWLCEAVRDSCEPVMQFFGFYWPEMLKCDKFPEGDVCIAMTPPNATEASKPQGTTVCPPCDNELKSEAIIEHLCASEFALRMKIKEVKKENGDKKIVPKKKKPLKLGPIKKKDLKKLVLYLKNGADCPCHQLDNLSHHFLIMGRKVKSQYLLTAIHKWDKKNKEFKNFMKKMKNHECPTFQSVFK
The assay can be described thus: Cell-based assay for in vitro measurement of SFRP-1/SARP2 antagonist activity (U2OS cells co-transfected with 16x TCF-tk-Luciferase reporter, Wnt and hSFRP-1).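 Further: U2OS cells co-transfected with a TCF-tk luciferase reporter, a Wnt vector, hSFRP-1 or empty vector and CMV-βgal, luciferase luminescence read in cell lysates alongside βgal activity.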 As to conditions: U2OS. For orientation: In a reporter assay the amount or activity of a reporter protein is the signal.

[1] abbreviates: read-out: Fold Induction with SFRP-1, Conc 15 μM, with SFRP-1, fold induction over SFRP-1 control, single dose.
[2] abbreviates: read-out: Fold Induction without SFRP-1, Conc 15 μM, without SFRP-1, single dose.

Read-outs that look alike come from different tables or passages of the source.

As to `Cc1cc(C)c(S(=O)(=O)c2ccc(F)cc2)cc1S(=O)(=O)NCCC1CCOCC1` [Example 333, 5-[(4-fluorophenyl)sulfonyl]-2,4-dimethyl-N-[2-(tetrahydro-2H-pyran-4-yl)ethyl]benzenesulfonamide], the fold induction at 15 µM runs as follows: under setting [1], 1.7; under setting [2], 1.

Regarding `O=S(=O)(NCCc1ccccc1)c1cc(S(=O)(=O)c2ccccc2)ccc1Cl` [Example 334, 2-chloro-N-(2-phenylethyl)-5-(phenylsulfonyl)benzenesulfonamide], the fold induction at 15 µM by setting is: under setting [1], 1.5; under setting [2], 1.2.

With `O=S(=O)(NCCN1CCOCC1)c1cc(S(=O)(=O)c2ccccc2)ccc1Cl` [Example 335, 2-chloro-N-(2-morpholin-4-ylethyl)-5-(phenylsulfonyl)benzenesulfonamide], the fold induction at 15 µM reads like this: under setting [1], 2.2; under setting [2], 1.

With `O=S(=O)(NCCCn1ccnc1)c1cc(S(=O)(=O)c2ccccc2)ccc1Cl` [Example 336, 2-chloro-N-[3-(1H-imidazol-1-yl)propyl]-5-(phenylsulfonyl)benzenesulfonamide], the fold induction at 15 µM under setting [1] turned out to be 2.8 and the fold induction at 15 µM under setting [2] amounted to 1.

On to `O=S(=O)(NCCc1ccccn1)c1cc(S(=O)(=O)c2ccccc2)ccc1Cl` [Example 337, 2-chloro-5-(phenylsulfonyl)-N-(2-pyridin-2-ylethyl)benzenesulfonamide], for which the fold induction at 15 µM runs as follows: under setting [1], 2.6; under setting [2], 1.1.

With `Cc1ccc(S(=O)(=O)c2ccc(C(C)C)cc2)cc1S(=O)(=O)NCCCn1ccnc1` [Example 338, N-[3-(1H-imidazol-1-yl)propyl]-5-[(4-isopropylphenyl)sulfonyl]-2-methylbenzenesulfonamide], the fold induction at 15 µM under setting [1] came to 1.2 and the fold induction at 15 µM under setting [2] came out at 1.

For the molecule `Cc1ccc(S(=O)(=O)c2ccc3ccccc3c2)cc1S(=O)(=O)NCCCn1ccnc1` [Example 339, N-[3-(1H-imidazol-1-yl)propyl]-2-methyl-5-(2-naphthylsulfonyl)benzenesulfonamide], the fold induction at 15 µM was determined as 2.6 under setting [1] and 1.1 under setting [2].

On to `Cc1ccc(S(=O)(=O)c2ccc(Cl)c(Cl)c2)cc1S(=O)(=O)NCCCn1ccnc1` [Example 340, 5-[(3,4-dichlorophenyl)sulfonyl]-N-[3-(1H-imidazol-1-yl)propyl]-2-methylbenzenesulfonamide], for which the fold induction at 15 µM runs as follows: under setting [1], 2.5; under setting [2], 1.

For `CC(C)(O)Cc1ccc(S(=O)(=O)c2ccccc2)cc1S(=O)(=O)NCCc1ccccc1` [Example 341, 2-(2-hydroxy-2-methylpropyl)-N-(2-phenylethyl)-5-(phenylsulfonyl)benzenesulfonamide], the fold induction at 15 µM is, setting by setting: under setting [1], 1.5; under setting [2], 1.1.

With `Cc1ccc(S(=O)(=O)c2cccc(Cl)c2)cc1S(=O)(=O)NCCCn1ccnc1` [Example 342, 5-[(3-chlorophenyl)sulfonyl]-N-[3-(1H-imidazol-1-yl)propyl]-2-methylbenzenesulfonamide], the fold induction at 15 µM stood at 3.3 under setting [1] and 1.1 under setting [2].

In the case of `Cc1cc(C)cc(S(=O)(=O)c2ccc(C)c(S(=O)(=O)NCCCn3ccnc3)c2)c1` [Example 343, 5-[(3,5-dimethylphenyl)sulfonyl]-N-[3-(1H-imidazol-1-yl)propyl]-2-methylbenzenesulfonamide], the fold induction at 15 µM runs as follows: under setting [1], 2.8; under setting [2], 1.

On to `Cc1ccc(S(=O)(=O)c2cc(Cl)ccc2Cl)cc1S(=O)(=O)NCCCn1ccnc1` [Example 345, 5-[(2,5-dichlorophenyl)sulfonyl]-N-[3-(1H-imidazol-1-yl)propyl]-2-methylbenzenesulfonamide], for which the fold induction at 15 µM by setting is: under setting [1], 1.6; under setting [2], 1.

For the molecule `Cc1ccc([S+]([O-])c2ccccc2)cc1S(=O)(=O)NCCCn1ccnc1` (centres unmarked) [Example 346, N-[3-(1H-imidazol-1-yl)propyl]-2-methyl-5-(phenylsulfinyl)benzenesulfonamide], the fold induction at 15 µM by setting is: under setting [1], 2.4; under setting [2], 1.3.
